Results: the supplement of paper PMC10307832

How the values were obtained:
Assay in all cases: relative viability (nuclei count vs DMSO), 5 days (fraction); higher = more cells survive
NCI-H838 = test system: NCI-H838
Method in brief: (§1)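 A single step with final 0.05% Triton X-100, 1% formaldehyde and 1 ug/ml Hoechst fixed the cells and stained nuclei 5 days after treatment. Lung cancer cell lines in 1536-well plates had been treated by pin tool the day after seeding with one drug alone or a fixed anchor-drug dose plus five library-drug doses (not always all listed) in √10 steps, and nuclei were counted on 4× images. Relative viability is the ratio of nuclei in treated wells to nuclei in vehicle wells, taken as the median of duplicate plates.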

NCI-H2405 = test system: NCI-H2405
Method in brief: as §1

UMC-11 = test system: UMC-11
Method in brief: as §1

NCI-H1975 = test system: NCI-H1975
Method in brief: as §1

LXF-289 = test system: LXF-289
Method in brief: as §1

NCI-H1437 = test system: NCI-H1437
Method in brief: as §1

NCI-H2085 = test system: NCI-H2085
Method in brief: as §1

NCI-H23 = test system: NCI-H23
Method in brief: as §1

NCI-H2023 = test system: NCI-H2023
Method in brief: as §1

NCI-H441 = test system: NCI-H441
Method in brief: as §1

HOP-62 = test system: HOP-62
Method in brief: as §1

EMC-BAC-2 = test system: EMC-BAC-2
Method in brief: as §1

CAL-12T = test system: CAL-12T
Method in brief: as §1

NCI-H2347 = test system: NCI-H2347
Method in brief: as §1

SW 900 = test system: SW 900
Method in brief: as §1

H3255 = test system: H3255
Method in brief: as §1

NCI-H1755 = test system: NCI-H1755
Method in brief: as §1

NCI-H460 = test system: NCI-H460
Method in brief: as §1

NCI-H1651 = test system: NCI-H1651
Method in brief: as §1

ChaGo-K-1 = test system: ChaGo-K-1
Method in brief: as §1

201T = test system: 201T
Method in brief: as §1

NCI-H2342 = test system: NCI-H2342
Method in brief: as §1

NCI-H1734 = test system: NCI-H1734
Method in brief: as §1

## C=C1C(=O)O[C@@H](CCCCCCCC)[C@@H]1C(=O)O [C-75] + Nc1nc2[nH]cc(CCc3ccc(C(=O)N[C@@H](CCC(=O)O)C(=O)O)cc3)c2c(=O)[nH]1 [Pemetrexed] (partner 0.2 µM)
NCI-H838; first compound 0.08 µM
  relative viability: 0.224
NCI-H838; first compound 0.253 µM
  relative viability: 0.265
NCI-H838; first compound 0.8 µM
  relative viability: 0.262
NCI-H838; first compound 2.53 µM
  relative viability: 0.18
NCI-H838; first compound 8 µM
  relative viability: 0.239
NCI-H2405; first compound 0.08 µM
  relative viability: 1
NCI-H2405; first compound 0.253 µM
  relative viability: 0.763
NCI-H2405; first compound 0.8 µM
  relative viability: 1.12
NCI-H2405; first compound 2.53 µM
  relative viability: 0.605
NCI-H2405; first compound 8 µM
  relative viability: 1.01
UMC-11; first compound 0.08 µM
  relative viability: 0.77
UMC-11; first compound 0.253 µM
  relative viability: 0.883
UMC-11; first compound 0.8 µM
  relative viability: 0.725
UMC-11; first compound 2.53 µM
  relative viability: 0.625
UMC-11; first compound 8 µM
  relative viability: 0.576
NCI-H1975; first compound 0.08 µM
  relative viability: 0.281
NCI-H1975; first compound 0.253 µM
  relative viability: 0.287
NCI-H1975; first compound 0.8 µM
  relative viability: 0.262
NCI-H1975; first compound 2.53 µM
  relative viability: 0.264
NCI-H1975; first compound 8 µM
  relative viability: 0.292
LXF-289; first compound 0.08 µM
  relative viability: 0.834
LXF-289; first compound 0.253 µM
  relative viability: 0.906
LXF-289; first compound 0.8 µM
  relative viability: 0.858
LXF-289; first compound 2.53 µM
  relative viability: 0.886
LXF-289; first compound 8 µM
  relative viability: 0.904
NCI-H1437; first compound 0.08 µM
  relative viability: 0.314
NCI-H1437; first compound 0.253 µM
  relative viability: 0.324
NCI-H1437; first compound 0.8 µM
  relative viability: 0.321
NCI-H1437; first compound 8 µM
  relative viability: 0.269
NCI-H2085; first compound 0.08 µM
  relative viability: 0.875
NCI-H2085; first compound 0.253 µM
  relative viability: 0.738
NCI-H2085; first compound 0.8 µM
  relative viability: 0.857
NCI-H2085; first compound 2.53 µM
  relative viability: 0.788
NCI-H2085; first compound 8 µM
  relative viability: 0.902
NCI-H23; first compound 0.08 µM
  relative viability: 0.716
NCI-H23; first compound 0.253 µM
  relative viability: 1.03
NCI-H23; first compound 0.8 µM
  relative viability: 0.546
NCI-H23; first compound 2.53 µM
  relative viability: 0.406
NCI-H23; first compound 8 µM
  relative viability: 0.443
NCI-H2023; first compound 0.08 µM
  relative viability: 0.246
NCI-H2023; first compound 0.253 µM
  relative viability: 0.265
NCI-H2023; first compound 0.8 µM
  relative viability: 0.242
NCI-H2023; first compound 2.53 µM
  relative viability: 0.171
NCI-H2023; first compound 8 µM
  relative viability: 0.21
NCI-H441; first compound 0.08 µM
  relative viability: 0.295
NCI-H441; first compound 0.253 µM
  relative viability: 0.278
NCI-H441; first compound 0.8 µM
  relative viability: 0.283
NCI-H441; first compound 8 µM
  relative viability: 0.263
HOP-62; first compound 0.08 µM
  relative viability: 0.365
HOP-62; first compound 0.253 µM
  relative viability: 0.306
HOP-62; first compound 0.8 µM
  relative viability: 0.291
HOP-62; first compound 2.53 µM
  relative viability: 0.268
HOP-62; first compound 8 µM
  relative viability: 0.311
EMC-BAC-2; first compound 0.08 µM
  relative viability: 0.438
EMC-BAC-2; first compound 0.253 µM
  relative viability: 0.432
EMC-BAC-2; first compound 0.8 µM
  relative viability: 0.469
EMC-BAC-2; first compound 2.53 µM
  relative viability: 0.328
EMC-BAC-2; first compound 8 µM
  relative viability: 0.426
CAL-12T; first compound 0.08 µM
  relative viability: 1.37
CAL-12T; first compound 0.253 µM
  relative viability: 1.45
CAL-12T; first compound 0.8 µM
  relative viability: 1.11
CAL-12T; first compound 2.53 µM
  relative viability: 1.05
CAL-12T; first compound 8 µM
  relative viability: 1.27
NCI-H2347; first compound 0.08 µM
  relative viability: 0.402
NCI-H2347; first compound 0.253 µM
  relative viability: 0.388
NCI-H2347; first compound 0.8 µM
  relative viability: 0.442
NCI-H2347; first compound 2.53 µM
  relative viability: 0.447
NCI-H2347; first compound 8 µM
  relative viability: 0.48
SW 900; first compound 0.08 µM
  relative viability: 0.446
SW 900; first compound 0.253 µM
  relative viability: 0.462
SW 900; first compound 0.8 µM
  relative viability: 0.479
SW 900; first compound 2.53 µM
  relative viability: 0.301
SW 900; first compound 8 µM
  relative viability: 0.454
H3255; first compound 0.08 µM
  relative viability: 0.588
H3255; first compound 0.253 µM
  relative viability: 0.561
H3255; first compound 0.8 µM
  relative viability: 0.577
H3255; first compound 2.53 µM
  relative viability: 0.525
H3255; first compound 8 µM
  relative viability: 0.627
NCI-H1755; first compound 0.08 µM
  relative viability: 0.457
NCI-H1755; first compound 0.253 µM
  relative viability: 0.468
NCI-H1755; first compound 0.8 µM
  relative viability: 0.46
NCI-H1755; first compound 2.53 µM
  relative viability: 0.391
NCI-H1755; first compound 8 µM
  relative viability: 0.438
NCI-H460; first compound 0.08 µM
  relative viability: 0.0548
NCI-H460; first compound 0.253 µM
  relative viability: 0.0554
NCI-H460; first compound 0.8 µM
  relative viability: 0.0669
NCI-H460; first compound 2.53 µM
  relative viability: 0.0313
NCI-H460; first compound 8 µM
  relative viability: 0.0571
NCI-H1651; first compound 0.08 µM
  relative viability: 0.568
NCI-H1651; first compound 0.253 µM
  relative viability: 0.671
NCI-H1651; first compound 0.8 µM
  relative viability: 0.541
NCI-H1651; first compound 2.53 µM
  relative viability: 0.53
NCI-H1651; first compound 8 µM
  relative viability: 0.606
ChaGo-K-1; first compound 0.08 µM
  relative viability: 0.265
ChaGo-K-1; first compound 0.253 µM
  relative viability: 0.259
ChaGo-K-1; first compound 0.8 µM
  relative viability: 0.239
ChaGo-K-1; first compound 2.53 µM
  relative viability: 0.243
ChaGo-K-1; first compound 8 µM
  relative viability: 0.254
201T; first compound 0.08 µM
  relative viability: 0.337
201T; first compound 0.253 µM
  relative viability: 0.323
201T; first compound 0.8 µM
  relative viability: 0.296
201T; first compound 2.53 µM
  relative viability: 0.311
201T; first compound 8 µM
  relative viability: 0.308
NCI-H2342; first compound 0.08 µM
  relative viability: 0.815
NCI-H2342; first compound 0.253 µM
  relative viability: 0.771
NCI-H2342; first compound 0.8 µM
  relative viability: 0.693
NCI-H2342; first compound 2.53 µM
  relative viability: 0.62
NCI-H2342; first compound 8 µM
  relative viability: 0.766
NCI-H1734; first compound 0.08 µM
  relative viability: 0.382
NCI-H1734; first compound 0.253 µM
  relative viability: 0.396
NCI-H1734; first compound 0.8 µM
  relative viability: 0.41
NCI-H1734; first compound 2.53 µM
  relative viability: 0.359
NCI-H1734; first compound 8 µM
  relative viability: 0.361
